The structures appear in SMILES notation.

Results on one molecule are retold here after ChEMBL document CHEMBL6087416, “Discovery of novel fused-heterocycle-bearing diarypyrimidine derivatives as HIV-1 potent NNRTIs targeting tolerant region I for enhanced antiviral activity and resistance profile” (Eur J Med Chem, 2025).

Data set [1] has as its system Human immunodeficiency virus 1. Description: Potency index, ratio of Nevirapine EC50 to test compound EC50 for antiviral activity against NNRTI-resistant HIV-1 harboring RT K103N mutant infected in human MT4 cells assessed as protection against virus-induced cytopathic effect incubated for 5 days by MTT assay. It counts as functional. The conditions noted are these: time 5 day. On the technique in general: Protection from cytopathic effect is a common read-out in antiviral testing.

Data set [2] has as its system Human immunodeficiency virus 1. As to the kind of experiment: Antiviral activity against NNRTI-resistant HIV-1 harboring RT E138K mutant infected in human MT4 cells assessed as protection against virus-induced cytopathic effect incubated for 5 days by MTT assay. The class given is functional, organism-based. Conditions: Human immunodeficiency virus 1, MT4, 120 h.
Data set [3] relates to Human immunodeficiency virus 1. Description: Antiviral activity against NNRTI-resistant HIV-1 harboring RT L100I mutant infected in human MT4 cells assessed as protection against virus-induced cytopathic effect incubated for 5 days by MTT assay. Conditions: Human immunodeficiency virus 1, MT4, 120 h. The class given is functional, organism-based.
Data set [4] relates to Human immunodeficiency virus 1. It counts as functional, organism-based. The conditions noted are these: Human immunodeficiency virus 1, MT4, 120 h.
Data set [5] has as its system Human immunodeficiency virus 1. As to the kind of experiment: Potency index, ratio of Efavirenz EC50 to test compound EC50 for antiviral activity against NNRTI-resistant HIV-1 harboring RT K103N mutant infected in human MT4 cells assessed as protection against virus-induced cytopathic effect incubated for 5 days by MTT assay. The class given is functional. Conditions: time 5 day.

Data set [6] relates to Human immunodeficiency virus 1. As to the kind of experiment: Potency index, ratio of doravirine EC50 to test compound EC50 for antiviral activity against NNRTI-resistant HIV-1 harboring RT K103N mutant infected in human MT4 cells assessed as protection against virus-induced cytopathic effect incubated for 5 days by MTT assay. It counts as functional. The conditions noted are these: time 5 day.

Data set [7] in a line: in vitro. The conditions noted are these: human, MT4 cells.
Description: Selectivity index, ratio of CC50 for human MT4 cells to EC50 for HIV-1 RES056 harboring RT K103N/Y181C mutant infected in human MT4 cells
Data set [8] is described as follows: in vitro. Conditions: human, MT4 cells. This is another data set of the same source.
Description: Selectivity index, ratio of CC50 for human MT4 cells to EC50 for wild type HIV-1 IIIB infected in human MT4 cells
Data set [9] concerns Human immunodeficiency virus 1. It counts as functional, organism-based. Conditions: Human immunodeficiency virus 1, MT4, 120 h. The source holds these as a separate data set.
In data set [10] the test system is Human immunodeficiency virus 1. Description: Antiviral activity against NNRTI-resistant HIV-1 harboring RT K103N mutant infected in human MT4 cells assessed as protection against virus-induced cytopathic effect incubated for 5 days by MTT assay. The class given is functional, organism-based. The conditions noted are these: Human immunodeficiency virus 1, MT4, 120 h.

Data set [11] has as its system Human immunodeficiency virus 1. As to the kind of experiment: Potency index, ratio of Zidovudine EC50 to test compound EC50 for antiviral activity against NNRTI-resistant HIV-1 harboring RT K103N mutant infected in human MT4 cells assessed as protection against virus-induced cytopathic effect incubated for 5 days by MTT assay. Conditions: time 5 day. It counts as functional.

Data set [12] concerns Human immunodeficiency virus 1. It counts as functional, organism-based. The conditions noted are these: Human immunodeficiency virus 1, MT4, 120 h. This is another data set of the same source.
In data set [13] the test system is Human immunodeficiency virus 2. Description: Antiviral activity against HIV-2 ROD infected in human MT4 cells assessed as protection against virus-induced cytopathic effect incubated for 5 days by MTT assay. The class given is functional, organism-based. The conditions noted are these: Human immunodeficiency virus 2, ROD, MT4, 120 h.
In data set [14] the test system is Human immunodeficiency virus 1. As to the kind of experiment: microbe, parasite or virus in culture. The conditions noted are these: Human immunodeficiency virus 1, IIIB, MT4, 120 h.
Description: Antiviral activity against wild type HIV-1 IIIB infected in human MT4 cells assessed as protection against virus-induced cytopathic effect incubated for 5 days by MTT assay
Data set [15] concerns Human immunodeficiency virus 1. It counts as functional, organism-based. The conditions noted are these: Human immunodeficiency virus 1, RES056, MT4, 120 h.
In data set [16] the target is Human immunodeficiency virus type 1 reverse transcriptase (Human immunodeficiency virus 1, UniProt Q72547). As to the kind of experiment: Inhibition of wild type HIV-1 Reverse transcriptase incubated for 1 hrs by ELISA analysis. (In an ELISA, binding on a coated surface is turned into a signal by an enzyme label.)
The nature of data set [17]: Cytotoxicity against human MT4 cells assessed as reduction in cell viability measured after 5 days by MTT assay. It counts as toxicity, cell-based. The conditions noted are these: time 5 day. A general note: Tetrazolium assays rely on reduction of a dye to a coloured formazan, in cell work by metabolically active cells.

Usually EC50 stands for the concentration at which the effect is half-maximal. In general, IC50 refers to the concentration at which inhibition is half-maximal. Read a high IC50 as weaker potency. The term CC50 denotes the concentration at which the toxic effect on the cells reaches its halfway point. As to `Cc1cc(/C=C/C#N)cc(C)c1Oc1ccnc(Nc2ccc3nncn3c2)n1`, the “Ratio EC50” value in data set [1] was found to be 2747; in [5], 50; in data set [6], 5; in data set [11], 19. Also, the EC50 in data set [2] was found to be 11 nM; in data set [3], 9 nM; in data set [4], 580 nM; in [9], 810 nM; in [10], 2 nM; in data set [12] it was 32 nM. The EC50 in data set [13] came to 6140 nM; in [14] it was 2 nM; in data set [15], 350 nM. The results for the selectivity ratio in “in vitro [7]” and in “in vitro [8]” were 182 and 11500, respectively. Further, the midpoint of inhibition in data set [16], the IC50, lay at 25 nM. Moreover, the CC50 at 120 h in data set [17] amounted to 22000 nM.
